The source of these data is patent US11241455B2, “Methods of treating disease by metabolic control of T-cell differentiation” (The J. David Gladstone Institutes, a testamentary trust …, priority 2016, dated 2022).

Holding throughout (format): cell-based, mouse
Test [1] relates to FOXP3 promoter and its intronic CpG island. Put plainly: Methylation analysis by bisulfite sequencing, T cells under TH17 condition. To be noted: 0.5 mM dimethyl R-2-HG (day 4) or AOA (day 6), male mice. The procedure: The method is essentially the same as described previously (Kim, et al. J Exp Med 204 (7), 1543-1551 (2007)). Briefly, genomic DNA was purified with Blood & Cell Culture DNA Midi Kit (Qiagen). Bisufite conversion of genomic DNA was performed using Epitect® bisulfite kit (Qiagen), according to the manufacture's instruction. The PCR product was run on 2% agarose, purified and cloned using TOPO® TA Cloning® Kit with PCR®4. Clones are picked for Sanger sequencing.

The test system of test [2] is differentiating TH17 cells. Put plainly: TH17 differentiation of CD4 naïve T cells (IL17F-RFP/FOXP3-GFP reporter or intracellular staining of IL-17 and FOXP3). To be noted: compound added after 24 hours of TH17 differentiation, analyzed on day 6. The procedure:
CD4 naïve T cells (CD4+CD25-CD62^highCD44^low) were obtained from interleukin (IL)-17F-red fluorescent protein (RFP)/FOXP3-green fluorescent protein (GFP) mice, which were characterized previously, or wild-type C57/BL6 mice, by cell sorting. 0.4 million cells were plated into 48 wells coated with anti-mouse CD3 (clone 145-2C11, eBioscience) […] and anti-mouse CD28 (clone 37.51, eBioscience) (1 μg/ml). The differentiation media for these naïve T cells was as follows: 0.5 ng/ml (or indicated) transforming growth factor (TGF) β, 200 U/ml mouse IL-2, 2 μg/ml anti-interferon (IFN) γ and 2 μg/ml anti-mouse IL4 for differentiation into iTreg cells; and 2.5 ng/ml TGFβ, 10 ng/ml mouse IL-1β, 10 ng/ml mouse IL-6, 10 ng/ml mouse IL-23, 2 μg/ml anti-mouse IFNγ, and anti-mouse IL-4 for differentiating into TH17 cells. The cells were supplemented with new medium at day 4. In cases in which small-molecule compounds were present, the fresh medium containing the same concentration of compounds was used. When necessary, the individual metabolite was added into the T-cell culture 6 hours later after initial cell plating. On day 6, the cells were analyzed for IL17F-RFP and FOXP3-GFP or the cells were collected and restimulated for 4-6 hours with PMA, inomycin, and Golgi-stop for intracellular staining in absence of indicated compounds.
To identify small molecules that regulate cell-fate switching of TH17/iTreg cells and to further understand the regulation of the TH17/iTreg balance, 10,000 individual small molecules were phenotypically screened using CD4 naïve T cells from IL-17F-RFP/FOXP3-GFP mice. The naïve T cells were cultured under optimal TH17 differentiation conditions and compounds that could reprogram TH17 differentiation toward iTreg cell fate were identified using the reporter readout. Briefly, after TH17 differentiation for 24 hours, compounds were added to TH17 culture, and the treatment was continued for an additional 5 days before the cells were analyzed for IL17F-RFP and FOXP3-GFP expression by high-throughput fluorescence-activated cell sorting (FACS) (FIG. 5a). […] This effect of reprogrammed differentiation was further confirmed by intracellular immunostaining of IL-17 and FOXP3 (FIG. 1a).

In test [3] the test system is differentiating TH17 cells. Nature of the test: Intracellular metabolite profiling by LC/MS in differentiating TH17 cells. The procedure: CD4 naïve T cells, differentiating TH17 cells (day 2.5), and differentiating iTreg cells (day 2.5) were obtained as described above. A solution of 80/20 methanol (MeOH)/H2O was used to extract intracellular metabolites. The extracted samples were analyzed with liquid chromatography (LC)/mass spectrometry (MS) metabolomics. 200 ng/mL of extraction standard (L-Glutamic acid-^13C5-^15N-d5) was added into samples, and the peak value for each metabolite was normalized to extraction standard. The data was transformed into Log 2 and clustered. Cell extracts obtained as described above were analyzed for relative abundance of ^13C and ^15N metabolites by liquid chromatography-triple quadrupole mass spectrometry (LC-MS) using scheduled selective reaction monitoring (SRM) for each metabolite of interest, with the detector set to negative mode. Quantitation of intracellular 2-hydroxyglutarate (2HG) was conducted as described previously (Kernesky et al., Blood 2015, 125(2) 296-303).

The mark [4] stands for this setting: differentiating TH17 cells, day 2.5, 0.5 mM AOA.

Turning to `NOCC(=O)O` [AOA, (aminooxy)-acetic acid], the “methylation level of FOXP3 promoter and its intronic CpG island” value in test [1] is “dramatically decreased the methylation levels”. Further, the “reprogramming of TH17 induction to iTreg cells (IL17F-expressing and FOXP3-expressing cells)” value in test [2] is reported as “reprogram TH17 induction to iTreg cells in a dose-dependent manner”. Further, in test [3] (setting [4]), the “abundance of TCA cycle intermediates (α-KG, succinate, fumarate, malate, citrate)” value is listed as “reduced partially”; the level of glutamate result is given as “slightly higher”; the “reduction of steady-state levels of 2-HG” value is listed as 75%. In test [3] (re-plotted from FIG. 2a: differentiating TH17 or iTreg cells (day 2.5), absence or presence of AOA), the “level of glutathione, oxidized glutathione, or L-asparate” value is “does not affect”.
